The text below walks through data of patent US10278966B2, “Method of isolating quaternary phenanthroindolizidine alkaloids with G-quaduplex DNA binding activity from Tylophra atrofolliculata, compositions comprising them and their medical use” (Macau University of Science and Technology, priority 2016, dated 2019).

Values joined by “and” are separate entries in the source; they are usually repeats but may differ in a detail not shown here. Equal entries are not always repeated.

In the assay the test system is human telomeric DNA G-quadruplex. The assay is described as follows: ESI-TOF-MS G-quadruplex binding assay. The note with it: for Relative binding affinity (RBA): negative ESI-TOF-MS, 10 uM human telomeric DNA (27 nt) and 10 uM compound in 10 mM ammonium acetate, RBA = sum of complexes peaks areas / sum of G-quadruplex DNA peaks areas, means ± SD. Here is the method: UV data were recorded using a Beckman DU 800 UV/vis spectrophotometer. HRESIMS were recorded on an Agilent 6230 ESI-TOF mass spectrometer. NMR spectra were obtained from Bruker Ascend™ 600 spectrometer equipped with a cyro platform. Silica gel (Devisil®, 40˜63 micron) was used for column chromatography. Silica gel plates (Merck, DC Kieselgel 60 F254) was used for TLC analysis. High-performance liquid chromatography (HPLC) was carried out on Agilent 1100, Agilent 1200 and Waters 1525-2489 apparatus with a semi-preparative column (Waters, XBridge® Prep C18, 5 μm, 250×10 mm). 27 nt human telomeric DNA (M monoisotopic=8492.4 Da, Invitrogen) was used for G-quadruplex binding assay, which was the same as the one applied in Bai, L. P. et al. PloS One 2013, 8, e53962. The G-quadruplex binding analysis was conducted on a Bruker maXis impact mass spectrometer equipped with a kdScientific syringe pump (Holliston, Mass., USA). Solvents for HPLC separation analysis were HPLC grade.
Electrospray ionization time-of-flight mass spectrometry (ESI-TOF-MS) experiments were conducted on a Bruker maXis impact mass spectrometer in the negative mode (Bai, L. P., Plos One, 2013, 8, e53962; Bai, L. P., Sci. Rep. 2014, 4, 6767). The ESI source parameters were set as follows: end plate offset voltage of 500 V, capillary voltage of 3000 V, nebulizer of 1.0 bar, dry gas flow of 4.0 L/min at 160° C. The flow rate of sample injection into the mass spectrometer was set at 3 uL/min by using a kdScientific syringe pump. Each mass spectrum was obtained by an average of at least 30 scans. The mixture of a final concentration of 10 uM nucleic acid, i.e. human telomeric DNA (27 nt) (M=8496.6 Da), and 10 uM phenanthroindolizidine alkaloid in 10 mM ammonium acetate was directly injected into mass spectrometer. Data were obtained from three parallel samples of nucleic acid-drug complex solution, and then analyzed with the software of Compass DataAnalysis.
ESI-TOF-MS was utilized to investigate the non-covalent binding capacity of compounds 1 to 7, i.e. compounds of Formulas (2) to (8) with human telomeric DNA G-quadruplex formed by the human telomeric sequence. The human telomeric sequence is known and disclosed in Bai, L. P. et al. PloS One 2013, 8, e53962. 13aS-tylophorine compound 8, i.e. compound of Formula (9):
[drawing 17] and reference G-quadruplex binder sanguinarine were used as control (Bai, L. P., Anal. Bioanal. Chem., 2008, 392, 709; Bai, L. P., Bioorg. Med. Chem., 2006, 14, 5439). […] The relative binding affinities (RBA) of tested compounds were calculated to evaluate their binding capacities to human telomeric DNA G-quadruplex using the equation: RBA=Σcomplexes peaks areas/ΣG-quadruplex DNA peaks areas

Consider `COc1cc2c(cc1O)c1cc3[n+](cc1c1cc(OC)c(OC)cc21)CCC3` [compound 1, 2-demethyldehydrotylophorine], for which the “Relative binding affinity (RBA)” value was 0.265 and 0.265 ± 0.008. The same measure, in the same setting: then `COc1cc2c(cc1O)c1cc(O)ccc1c1cc3[n+](cc21)CCC3` [compound 2, 3-demethylanhydrodehydrotylophorinidine], with 0.122 and 0.122 ± 0.007; and `COc1cc2c(cc1O)c1cc(OC)c(O)cc1c1cc3[n+](cc21)CCC3` [compound 3, 2-hydroxylanhydrodehydrotylophorinidine], with 0.189 and 0.189 ± 0.002; and `COc1cc2c(cc1O)c1cc(OC)c(OC)cc1c1cc3[n+](cc21)CCC3` [compound 4, 6-demethyldehydrotylophorine], with 0.238 and 0.238 ± 0.010.

Regarding `COc1cc2c3cc(OC)c(OC)cc3c3c[n+]4c(cc3c2cc1OC)CCC4` [compound 5, dehydrotylophorine], the “Relative binding affinity (RBA)” value is 0.290 and 0.290 ± 0.017. For `COc1ccc2c(c1)c1cc(O)c(OC)cc1c1c[n+]3c(cc21)CCC3` [compound 6, an hydrodehydrotylophorinidine], the “Relative binding affinity (RBA)” value is 0.437 and 0.437 ± 0.019. For the same molecule, for the setting “ratio of RBA values”, the “potency in RBA value, times that of 3-demethyl analogue compound 2” value was “at least 3 times”. With `COc1ccc2c(c1)c1cc(OC)c(OC)cc1c1c[n+]3c(cc21)CCC3` [compound 7, tylophoridicine D], the “Relative binding affinity (RBA)” value is 0.619 and 0.619 ± 0.016. For the setting “ratio of RBA values”, the “RBA value, times higher than that of 2-methoxylated/hydroxylated analogues compound 5 or 1” value is “at least 2 times”.

For `COc1cc2c3c(c4cc(OC)c(OC)cc4c2cc1OC)CN1CCC[C@H]1C3` [compound 8, 13aS-tylophorine, reference compound], the “Relative binding affinity (RBA)” value was 0.168 and 0.168 ± 0.007.
